pIC50: −log10 of the molar value. Calls of active or inactive are those of the source. The rule behind the calls is not given here.
Experiments:
HepG2 [1] = assay: Antiproliferative activity against human HepG2 cells assessed as reduction in cell viability at 50 uM incubated for 72 hrs by MTT assay; type: functional; details: HepG2, 72 h
HepG2 [2] = assay: Antiproliferative activity against human HepG2 cells assessed as reduction in cell viability at 50 uM incubated for 72 hrs in presence of 50 uM iron chloride by MTT assay; type: functional, cell-based
HepG2 [3] = assay: Antiproliferative activity against human HepG2 cells assessed as reduction in cell viability incubated for 72 hrs by MTT assay; type: functional, cell-based; details: HepG2, 72 h
L02 [4] = assay: Antiproliferative activity against human LO2 cells assessed as reduction in cell viability at 50 uM incubated for 72 hrs by MTT assay; type: cell-based; details: l02, 72 h
L02 [5] = assay: Increase in cell viability in human LO2 cells at 50 uM incubated for 72 hrs by MTT assay relative to untreated control; type: functional

Compound | inhibition at 50 µM (HepG2 [1]) | inhibition (HepG2 [2]) | pIC50 (HepG2 [3]) | Activity (L02 [4]) | fold change (FC) (L02 [5])
O=C(O)CN(CCN(CC(=O)O)CC(=O)O)CCN(CC(=O)O)CC(=O)O [PENTETIC ACID] | 60% | inactive | 4.42 | Non-Toxic | –
O=C(O)CN(CCN1CCN(CP(=O)(O)O)CCN(CP(=O)(O)O)CC1)CC(=O)O | – | – | 5.42 | Non-Toxic | 3 - 8
O=C(O)CN1CCN(CCn2cccc(O)c2=O)CCN(CC(=O)O)CC1 | 80% | inactive | 5.16 | Non-Toxic | 3 - 8
O=C(O)CN1CCN(CCCn2cccc(O)c2=O)CCN(CC(=O)O)CC1 | 80% | inactive | 5.35 | Non-Toxic | 3 - 8
O=C(O)CN(CCCc1ccc([N+](=O)[O-])cc1)CCN1CCN(CC(=O)O)CCN(CC(=O)O)CC1 | – | – | 5.85 | Non-Toxic | 3 - 8
CC(=O)N(O)CCCCCNC(=O)CCC(=O)N(O)CCCCCNC(=O)CCC(=O)N(O)CCCCCN [DEFEROXAMINE] | 40% | inactive | < 4.00 | Non-Toxic | –
O=C(O)CN1CCN(CC(=O)O)CCN(CC(Cc2ccc([N+](=O)[O-])cc2)N(CC(=O)O)CC(=O)O)CC1 (stereo not given) | – | – | 5.09 | Non-Toxic | 3 - 8
Nc1ccc(CCCN(CCN2CCN(CC(=O)O)CCN(CC(=O)O)CC2)CC(=O)O)cc1 | – | – | 5.82 | Non-Toxic | 3 - 8

From ChEMBL document CHEMBL4177738, “Synthesis and evaluation of a class of 1,4,7-triazacyclononane derivatives as iron depletion antitumor agents” (Bioorg Med Chem Lett, 2018)
